Data taken from patent US6908944B2, “Use of 6-dimethylaminomethyl-1-phenyl-cyclohexane compounds for treatment of urinary incontinence” (Gruenenthal GmbH, priority 2000, dated 2005).

test system: spontaneous contractions of the bladder; test: Cystometry on anaesthetized naive rats (suppression of rhythmic spontaneous bladder contractions); type: in vivo, rat; conditions: anaesthetized ventilated naive female rats; i.v., cumulative administration; mean of 3 experiments
Method: The cystometric investigation of naive female rats was carried out by the method of Kimura et al. (Kimura et al., 1996, Int. J. Urol. 3:218-227). The abdomen of anaesthetized ventilated rats is opened up and the ureter is tied off. The urine is drained from the kidneys. A catheter is inserted into the bladder and fixed. […] After stable starting values are reached, the test substance is administered i.v. in a cumulative manner. An influence on bladder function manifests itself via suppression of spontaneous contractions. The absence of contractions over a period of 10 min is the parameter for the suppression.
A suppression of spontaneous contractions in rats was measurable with all the substances tested.

Row | Compound | Lowest dose (mean of the lowest dose at which for the first time contractions are absent over a period of 10 min)
1 | CN(C)C[C@@H]1CCCC[C@H]1c1cccc(O)c1.Cl [Compound 20, (−)-(1R,2R)-3-(2-Dimethylaminomethyl-cyclohexyl)-phenol, hydrochloride] | 0.5 (n = 3) mg/kg
2 | CN(C)C[C@H]1CCCC[C@]1(F)c1cccc(O)c1.Cl [Compound 18, (+)-(1R,2R)-3-(2-Dimethylaminomethyl-1-fluoro-cyclohexyl)-phenol, hydrochloride] | 0.2 (n = 3) mg/kg
3 | COc1cccc(C2(O)CCCCC2CN(C)C)c1 (racemic) [Compound 23, rac-Tramadol, reference compound] | 5.3 (n = 3) mg/kg
4 | CN(C)C[C@H]1CCCC[C@@H]1c1cccc(O)c1.Cl [Compound 19, (+)-(1S,2S)-3-(2-Dimethylaminomethyl-cyclohexyl)-phenol, hydrochloride] | 0.1 (n = 3) mg/kg
